Measurements reported in patent publication US7071169B2, “Pyrane derivatives as both ACE-and NEP-inhibitors” (Novartis AG, priority 2001, dated 2006).
Values belong to the molecule of their own block, whether it stands above or below them. Bridges are numbered along the chain shown (N, C = ends). Where no end group is shown, it is not given here.

Experiments:
[1] = biological target: rabbit antibodies that recognize specifically the carboxyl terminal tryptophan of ET-1; experiment: RIA: displacement of [125I]ET-1 binding to anti-ET-1 antibodies; details: mean±SEM, n=3–5
Procedure: Diluted samples ([…]) obtained from the above enzyme assay are incubated at 4° C. overnight with 25 μL each of [^125I]ET-1 (10,000 cpm/tube) and 1:20,000-fold diluted rabbit antibodies that recognize specifically the carboxyl terminal tryptophan of ET-1. Goat anti-rabbit antibodies coupled to magnetic beads (70 μg) are then added to each tube, and the reaction mixture is further incubated for 30 minutes at room temperature. The beads are pelleted using a magnetic rack. The supernatant is decanted, and the radioactivity in the pellet is counted in a gamma counter. Total and non-specific binding are measured in the absence of non-radioactive ET-1 and anti-ET antibodies, respectively.

[2] = test system: spontaneously hypertensive rat (SHR); experiment: antihypertensive activity in conscious spontaneously hypertensive rat (SHR); type: in vivo; details: 11.6 mg/kg p.o.
Excerpt: The antihypertensive activity can be determined, e.g., in the spontaneously hypertensive rat (SHR) and the desoxy-corticosterone acetate (DOCA)-salt hypertensive rat, e.g., according to Trapani et al., J. Cardiovasc. Pharmacol., Vol. 14, pp. 419–424 (1989).

[3] = test system: angiotensin I induced pressor response; experiment: inhibition of the angiotensin I induced pressor response in normotensive rats; type: in vivo, rat; details: 10 mg/kg p.o., for 4 hours
Procedure: The in vivo test for i.v. administered compounds is performed with male, normotensive rats, which are anesthetized with sodium metofan. A femoral artery and femoral vein are cannulated respectively for direct blood pressure measurement on i.v. administration of angiotensin I and i.v. or p.o. administration of a compound of this invention. After the basal blood pressure is stabilized, pressor responses to 3 challenges of 300 ng/kg angiotensin I i.v., at 15 minute intervals, are obtained. Such pressure responses are usually again obtained at 15, 30, 60 and 90 minutes, and then every hour up to 6 hours after i.v. or p.o. administration of the compound to be tested, and compared with the initial responses. Any observed decrease of said pressor response is an indication of ACE inhibition.

NEP (EC 3.4.24.11) = biological target: T1, NEP (EC 3.4.24.11) (Rattus norvegicus, UniProt P07861); experiment: in vitro inhibition of NEP (hydrolysis of glutaryl-Ala-Ala-Phe-2-naphthylamide, GAAP assay); type: biochemical; details: rat kidney cortex membranes
T1 construct: rat kidney cortex membranes prepared by method of Maeda et al. (1983); from tissue; host or cells: rat kidney cortex membranes
T1 sequence (P07861 1-750): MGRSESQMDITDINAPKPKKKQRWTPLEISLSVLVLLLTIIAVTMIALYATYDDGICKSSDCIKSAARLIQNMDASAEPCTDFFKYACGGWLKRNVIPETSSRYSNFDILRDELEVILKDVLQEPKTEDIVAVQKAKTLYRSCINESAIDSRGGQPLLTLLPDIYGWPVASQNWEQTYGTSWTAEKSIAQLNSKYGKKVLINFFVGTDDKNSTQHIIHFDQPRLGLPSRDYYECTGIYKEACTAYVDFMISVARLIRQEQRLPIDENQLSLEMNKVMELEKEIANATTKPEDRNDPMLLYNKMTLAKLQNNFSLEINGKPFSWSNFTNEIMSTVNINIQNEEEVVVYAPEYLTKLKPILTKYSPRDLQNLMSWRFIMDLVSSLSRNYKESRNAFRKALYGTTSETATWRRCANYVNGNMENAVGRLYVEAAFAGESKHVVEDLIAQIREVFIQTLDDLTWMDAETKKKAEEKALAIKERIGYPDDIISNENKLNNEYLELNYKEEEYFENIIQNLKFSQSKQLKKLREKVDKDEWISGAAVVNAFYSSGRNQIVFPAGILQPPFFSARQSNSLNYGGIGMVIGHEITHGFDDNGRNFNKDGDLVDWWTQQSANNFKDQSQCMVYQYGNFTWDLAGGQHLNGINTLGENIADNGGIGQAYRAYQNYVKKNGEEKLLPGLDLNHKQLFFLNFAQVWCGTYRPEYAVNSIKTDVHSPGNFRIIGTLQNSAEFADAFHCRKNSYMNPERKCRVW
Procedure: (§1) In vitro testing is most appropriate for the free carboxylic acids of the invention. The test compound is dissolved in dimethyl sulfoxide, ethanol, or 0.25M sodium bicarbonate solution, and the solution is diluted with buffer to the desired concentration.
The in vitro inhibition of NEP (EC 3.4.24.11) can be determined as follows:
NEP 3.4.24.11 activity is determined by the hydrolysis of the substrate glutaryl-Ala-Ala-Phe-2-naphthylamide […] using a modified procedure of Orlowski and Wilk (1981). The incubation mixture (total volume 125 μL) contains 4.2 μL of protein (rat kidney cortex membranes prepared by method of Maeda et al. (1983), 50 mM tris buffer, pH 7.4 at 25°0 C., 500 μM substrate (final concentration), and leucine aminopeptidase M (2.5 μg). The mixture is incubated for 10 minutes at 25° C., and 100 μL of fast garnet (250 μg fast garnet/mL of 10% Tween 20 in 1M sodium acetate pH 4.2) is added. Enzyme activity is measured spectrophotometrically at 540 nm. One unit of NEP 24.11 activity is defined as 1 nmol of 2-naphthylamine released per minute at 25° C. at pH 7.4. IC50 values are determined, i.e., the concentration of test compound required for 50% inhibition of the release of 2-naphthylamine.

ACE = ACE (Homo sapiens, UniProt P12821); experiment: in vitro inhibition of ACE (hippuryl-histidyl-leucine hydrolysis); type: biochemical; details: ACE in vitro assay
Procedure: as §1
The buffer for the ACE assay is 300 mM NaCl, 100 mM KH2PO4 (pH 8.3). The reaction is initiated by the addition of 100 μL of hippuryl-histidyl-leucine (2 mg/mL) to tubes containing enzyme and drug in a volume of 150 μL and tubes are incubated for 30 minutes at 37° C. The reaction is terminated by the addition of 0.75 mL 0.6N NaOH. 100 μL of freshly prepared o-phthalaldehyde solution (2 mg/mL in methanol) is added to the tubes, the contents are mixed and allowed to stand at room temperature. After 10 minutes, 100 μL of 6N HCl is added. The tubes are centrifuged and the supernatant optical density is read at 360 nm. The results are plotted against drug concentration to determine the IC50, i.e., the drug concentration which gives half the activity of the control sample containing no drug.

Sequence of ACE (P12821 30-1306, species assumed): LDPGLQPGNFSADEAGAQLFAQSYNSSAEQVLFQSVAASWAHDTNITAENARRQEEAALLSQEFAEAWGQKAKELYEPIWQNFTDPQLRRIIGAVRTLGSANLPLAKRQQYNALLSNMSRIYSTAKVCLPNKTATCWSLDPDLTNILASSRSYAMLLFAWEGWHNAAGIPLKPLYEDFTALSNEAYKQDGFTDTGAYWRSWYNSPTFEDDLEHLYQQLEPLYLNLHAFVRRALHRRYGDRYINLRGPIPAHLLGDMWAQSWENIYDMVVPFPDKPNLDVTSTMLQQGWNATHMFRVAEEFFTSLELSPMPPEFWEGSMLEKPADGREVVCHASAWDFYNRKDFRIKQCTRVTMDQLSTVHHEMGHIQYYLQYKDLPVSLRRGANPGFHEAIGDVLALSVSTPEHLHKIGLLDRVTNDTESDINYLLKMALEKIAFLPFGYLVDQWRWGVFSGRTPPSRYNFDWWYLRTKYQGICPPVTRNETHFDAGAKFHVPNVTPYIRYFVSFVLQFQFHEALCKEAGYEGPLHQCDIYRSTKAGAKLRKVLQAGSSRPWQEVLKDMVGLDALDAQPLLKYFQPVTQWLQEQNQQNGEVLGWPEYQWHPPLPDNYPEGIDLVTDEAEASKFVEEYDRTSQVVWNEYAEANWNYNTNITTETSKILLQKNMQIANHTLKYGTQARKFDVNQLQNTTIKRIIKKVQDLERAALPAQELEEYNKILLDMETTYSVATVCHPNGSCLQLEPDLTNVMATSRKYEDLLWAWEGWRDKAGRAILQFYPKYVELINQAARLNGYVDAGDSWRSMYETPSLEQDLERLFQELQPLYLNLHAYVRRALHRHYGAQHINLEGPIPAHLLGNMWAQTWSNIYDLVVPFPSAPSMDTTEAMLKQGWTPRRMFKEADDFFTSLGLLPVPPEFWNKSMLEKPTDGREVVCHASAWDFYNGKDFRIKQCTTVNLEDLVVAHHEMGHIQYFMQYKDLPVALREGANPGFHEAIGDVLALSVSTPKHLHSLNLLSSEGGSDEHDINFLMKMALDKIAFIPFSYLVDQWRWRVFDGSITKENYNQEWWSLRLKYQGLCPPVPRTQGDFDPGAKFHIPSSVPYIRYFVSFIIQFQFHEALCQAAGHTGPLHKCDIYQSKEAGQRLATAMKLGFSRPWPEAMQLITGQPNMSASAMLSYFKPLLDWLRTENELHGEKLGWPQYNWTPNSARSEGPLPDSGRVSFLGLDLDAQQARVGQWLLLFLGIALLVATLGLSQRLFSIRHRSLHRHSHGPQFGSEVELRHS

IC50 for displacement of [125I]ET-1 binding to the antibodies [1]: 21 ± 2 fmol
Molecule: ET-1: non-radioactive ET-1, the peptide formed from big ET-1 by ECE and measured by RIA

Molecule: CCOC(=O)[C@H](Cc1ccc(OC)cc1)NC(=O)C(C)(C)NC(=O)[C@@H](SC(C)=O)C1CCOCC1 [Example 1f, N-[2-[(S)-2-acetylthio-2-(4-tetrahydropyranyl)-acetylamino]-2-methylpropionyl]-(L)-4-methoxyphenylalanine ethyl ester]
reduction of mean arterial pressure [2]: about 16 mm Hg
inhibition of the angiotensin I induced pressor response [3]: 98%

IC50 for displacement of [125I]ET-1 binding to the antibodies [1]: 260,000±66,000 fmol
Molecule: big ET-1: ECE substrate from which ET-1 is formed; added in the ECE-1 assay (CSCSSLMDKECVYFCHLDIIWVNTPEHVVPYGLGSPRS; disulfide 1-15, 3-11; ends not checked; UniProt P05305 53-90, looked up)

IC50 (NEP (EC 3.4.24.11)): ~4.8 nM
IC50 (ACE): ~5.9 nM
Molecule: COc1ccc(C[C@H](NC(=O)C(C)(C)NC(=O)[C@@H](S)C2CCOCC2)C(=O)O)cc1 [Example 2g, N-[2-[(S)-2-mercapto-2-(4-tetrahydropyranyl)-acetylamino]-2-methylpropionyl]-(L)-4-methoxyphenylalanine]
